Reference: ChEMBL document CHEMBL1138685, “Molecular recognition in purinergic receptors. 2. Diastereoselectivity of the h-P2Y1-receptor” (J Med Chem, 2004)

Each compound was assayed against P2Y purinoceptor 1 (Homo sapiens) (UniProt P47900) (assay: Concenthumanion required for calcium mobilization at human purinergic 2Y1 receptor expressed in HEK 293 cells).
Sequence of P2Y purinoceptor 1 (Homo sapiens) (P47900 whole entry, looked up): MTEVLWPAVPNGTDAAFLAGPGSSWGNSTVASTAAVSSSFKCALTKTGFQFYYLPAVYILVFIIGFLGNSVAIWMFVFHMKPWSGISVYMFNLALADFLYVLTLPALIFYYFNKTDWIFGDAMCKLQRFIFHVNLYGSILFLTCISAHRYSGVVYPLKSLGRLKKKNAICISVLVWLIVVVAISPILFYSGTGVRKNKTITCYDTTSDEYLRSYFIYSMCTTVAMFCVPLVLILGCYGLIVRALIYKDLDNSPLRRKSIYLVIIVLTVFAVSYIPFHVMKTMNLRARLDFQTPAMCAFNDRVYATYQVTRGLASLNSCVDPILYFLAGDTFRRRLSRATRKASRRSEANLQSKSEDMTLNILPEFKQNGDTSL
In the case of `Nc1ncnc2c1ncn2C1O[C@H](CO[P@@](O)(=S)OP(=O)(O)OP(=O)(O)O)[C@@H](O)[C@H]1O` (stereo partly specified), the EC50 is reported as 75 nM. With `CSc1nc(N)c2ncn(C3O[C@H](CO[P@@](O)(=S)OP(=O)(O)OP(=O)(O)O)[C@@H](O)[C@H]3O)c2n1` (stereo partly specified) the EC50 was 20 nM. For `Nc1ncnc2c1ncn2C1O[C@H](CO[P@](O)(=S)OP(=O)(O)OP(=O)(O)O)[C@@H](O)[C@H]1O` (stereo partly specified), the EC50 was 9.4 nM. With `CSc1nc(N)c2ncn(C3O[C@H](CO[P@](O)(=S)OP(=O)(O)OP(=O)(O)O)[C@@H](O)[C@H]3O)c2n1` (stereo partly specified) the EC50 was 1 nM. `BP(=O)(OC[C@H]1O[C@@H](n2cnc3c(N)nc(SC)nc32)[C@H](O)[C@@H]1O)OP(=O)(O)OP(=O)(O)O` (stereo partly specified) gave an EC50 of 53 nM. With `CSc1nc(N)c2ncn([C@@H]3O[C@H](COP(=O)(O)OP(=O)(O)OP(=O)(O)O)[C@@H](O)[C@H]3O)c2n1` the EC50 was 1 nM.
